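Method: 48-hour compound exposure of cells in 96-well plates, five concentrations, linear interpolation of endpoints. Here, GI50 denotes the concentration required for 50% inhibition of growth. TGI denotes the concentration required for complete inhibition of growth.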
Columns and labels:
Test in all cases: NCI-60 cell line screen, 48 h
[1] = test system: MOLT-4 leukemia
[2] = test system: PC-3 prostate
[3] = test system: HT29 colon
[4] = test system: OVCAR-5 ovarian
[5] = test system: RXF 393 renal
[6] = test system: HOP-62 NSCLC
[7] = test system: SK-MEL-2 melanoma
[8] = test system: EKVX NSCLC
[9] = test system: SF-539 CNS
[10] = test system: HCT-15 colon
[11] = test system: TK-10 renal
[12] = test system: SF-295 CNS
[13] = test system: COLO 205 colon
[14] = test system: M14 melanoma
[15] = test system: NCI-H23 lung
[16] = test system: NCI/ADR-RES ovarian
[17] = test system: MDA-MB-231 breast
[18] = test system: OVCAR-3 ovarian
[19] = test system: SK-MEL-5 melanoma
[20] = test system: T-47D breast
[21] = test system: SW-620 colon
[22] = test system: U251 CNS
[23] = test system: SR leukemia
[24] = test system: MCF7 breast
[25] = test system: SF-268 CNS
[26] = test system: SK-MEL-28 melanoma
[27] = test system: NCI-H226 lung
[28] = test system: HS 578T breast
[29] = test system: HCT-116 colon
[30] = test system: IGROV1 ovarian
[31] = test system: HCC-2998 colon
[32] = test system: SNB-19 CNS
[33] = test system: CAKI-1 renal
[34] = test system: K-562 leukemia
[35] = test system: BT-549 breast
[36] = test system: 786-0 renal
[37] = test system: A549 NSCLC
[38] = test system: SN12C renal
[39] = test system: DU-145 prostate
[40] = test system: HL-60(TB) leukemia
[41] = test system: OVCAR-8 ovarian
[42] = test system: UACC-257 melanoma
[43] = test system: MALME-3M melanoma
[44] = test system: KM12 colon
[45] = test system: RPMI-8226 leukemia
[46] = test system: ACHN renal
[47] = test system: SNB-75 CNS
[48] = test system: HOP-92 NSCLC
[49] = test system: UO-31 renal
[50] = test system: SK-OV-3 ovarian
[51] = test system: A498 renal
[52] = test system: OVCAR-4 ovarian
[53] = test system: NCI-H460 lung
[54] = test system: CCRF-CEM leukemia
[55] = test system: UACC-62 melanoma
[56] = test system: LOX IMVI melanoma
[57] = test system: NCI-H522 lung
[58] = test system: MDA-MB-435

O=C(/C=C/c1cc2ccccc2[nH]c1=O)c1ccc(Cl)cc1
GI50 [1]: 22.8 µM | TGI [1]: > 100 µM | GI50 [2]: > 67.7 µM | TGI [2]: > 100 µM | GI50 [3]: 21 µM | TGI [3]: > 60.8 µM | GI50 [4]: 38.2 µM | TGI [4]: 99 µM | GI50 [5]: 22.9 µM | TGI [5]: > 60.2 µM | GI50 [6]: 29.6 µM | TGI [6]: > 76.2 µM | GI50 [7]: 30.1 µM | TGI [7]: > 63.6 µM | GI50 [8]: 28.5 µM | TGI [8]: > 100 µM | GI50 [9]: 16.9 µM | TGI [9]: 39.3 µM | GI50 [10]: 20.2 µM | TGI [10]: > 58.7 µM | GI50 [11]: 26.4 µM | TGI [11]: > 59.3 µM | GI50 [12]: 23.2 µM | TGI [12]: > 72.6 µM | GI50 [13]: 37.4 µM | TGI [13]: > 80 µM | GI50 [14]: 28.7 µM | TGI [14]: > 73.5 µM | GI50 [15]: 27.3 µM | TGI [15]: 97.7 µM | GI50 [16]: 21.9 µM | TGI [16]: 56.2 µM | GI50 [17]: 25.5 µM | TGI [17]: 61.3 µM | GI50 [18]: 27.3 µM | TGI [18]: > 67.6 µM | GI50 [19]: 47.6 µM | TGI [19]: > 100 µM | GI50 [20]: 27.3 µM | TGI [20]: > 100 µM | GI50 [21]: 20.5 µM | TGI [21]: > 49.5 µM | GI50 [22]: 19.1 µM | TGI [22]: > 48.5 µM | GI50 [23]: 15.6 µM | TGI [23]: > 57.6 µM | GI50 [24]: 17.9 µM | TGI [24]: > 100 µM | GI50 [25]: 28 µM | TGI [25]: > 85.8 µM | GI50 [26]: > 56.1 µM | TGI [26]: > 89.8 µM | GI50 [27]: 41 µM | TGI [27]: > 73 µM | GI50 [28]: > 48 µM | TGI [28]: > 100 µM | GI50 [29]: 18 µM | TGI [29]: 49.1 µM | GI50 [30]: 23.3 µM | TGI [30]: > 52.8 µM | GI50 [31]: 25.1 µM | TGI [31]: 56.6 µM | GI50 [32]: 28.2 µM | TGI [32]: > 100 µM | GI50 [33]: 16.8 µM | TGI [33]: > 32.1 µM | GI50 [34]: > 71.3 µM | TGI [34]: > 100 µM | GI50 [35]: 24.9 µM | TGI [35]: > 55.6 µM | GI50 [36]: > 37.2 µM | TGI [36]: > 100 µM | GI50 [37]: 30.7 µM | TGI [37]: > 100 µM | GI50 [38]: 30.8 µM | TGI [38]: > 100 µM | GI50 [39]: 23 µM | TGI [39]: > 78.8 µM | TGI [40]: > 100 µM | GI50 [41]: 25.3 µM | TGI [41]: > 59.6 µM | GI50 [42]: 33.5 µM | TGI [42]: > 77.7 µM | GI50 [43]: 37.2 µM | TGI [43]: > 70.7 µM | GI50 [44]: 22.3 µM | TGI [44]: > 54.6 µM | GI50 [45]: 13.8 µM | TGI [45]: 50.1 µM | GI50 [46]: 33 µM | TGI [46]: > 64.9 µM | GI50 [47]: 22.4 µM | TGI [47]: 61.5 µM | GI50 [48]: 21.6 µM | TGI [48]: 76.8 µM | GI50 [49]: > 23 µM | TGI [49]: > 100 µM | GI50 [50]: 55.1 µM | TGI [50]: > 100 µM | GI50 [51]: > 56.3 µM | TGI [51]: > 100 µM | GI50 [52]: 17.3 µM | TGI [52]: > 100 µM | GI50 [53]: 26.2 µM | TGI [53]: > 57.3 µM | GI50 [54]: 21.6 µM | TGI [54]: > 100 µM | GI50 [55]: 26.4 µM | TGI [55]: > 81.6 µM | GI50 [56]: 19.4 µM | TGI [56]: > 60.5 µM | GI50 [57]: 15.7 µM | TGI [57]: 32.1 µM | GI50 [58]: 18.8 µM | TGI [58]: > 50.8 µM

— PubChem BioAssay (NCI)
